Consider two molecules from patent publication US6818391B2, “Glutamate transporters” (The Regents of the University of California, priority 2000, dated 2004).

Each structure is given as a SMILES string. Values joined by “and” are separate entries in the source; they are usually repeats but may differ in a detail not shown here. Equal values may be shown once.

One experiment deals with T1, DNPI/VGLUT2 (Rattus norvegicus, UniProt Q9JI12).
T1 construct: To reconstruct the full open reading frame, the missing segment was amplified from rat brain cDNA by PCR; expressed in transfected cells; light membranes prepared from them
T1 sequence (Q9JI12 1-582): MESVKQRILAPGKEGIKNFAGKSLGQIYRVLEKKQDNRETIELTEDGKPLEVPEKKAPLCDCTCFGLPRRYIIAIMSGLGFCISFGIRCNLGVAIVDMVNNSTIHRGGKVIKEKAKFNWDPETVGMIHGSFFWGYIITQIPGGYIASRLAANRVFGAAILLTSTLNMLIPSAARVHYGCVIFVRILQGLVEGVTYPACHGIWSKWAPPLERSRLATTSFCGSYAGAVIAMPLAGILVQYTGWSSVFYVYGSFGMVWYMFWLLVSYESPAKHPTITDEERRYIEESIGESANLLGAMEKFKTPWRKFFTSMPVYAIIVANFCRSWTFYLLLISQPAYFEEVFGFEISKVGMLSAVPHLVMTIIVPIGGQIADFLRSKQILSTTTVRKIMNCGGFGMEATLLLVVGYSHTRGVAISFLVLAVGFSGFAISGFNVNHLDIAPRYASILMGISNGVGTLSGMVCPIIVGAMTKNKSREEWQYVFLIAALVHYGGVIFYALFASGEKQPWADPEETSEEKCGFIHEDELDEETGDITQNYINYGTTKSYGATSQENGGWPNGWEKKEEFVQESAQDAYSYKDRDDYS
Nature of the experiment: 3H-L-glutamate uptake by membranes from PC12 cells expressing DNPI/VGLUT2. Type of experiment: biochemical. On the procedure: PC12 cells were grown in Dulbecco's modified Eagle's medium containing 10% equine serum, 5% calf serum and transfected by electroporation with the rat DNPI/VGLUT2 cDNA subcloned in the pcDNA3 vector containing an […] (Krantz et al. (2000) J. Cell Biol. 149). Stable transformants were selected for resistance to the neomycin analog G418 (500 μg/ml) and screened by immunofluorescence with the DNPI antibody, resulting in the identification of two independent clones with more than 80% of the cells expressing DNPI.
For membrane preparation, untransfected and DNPI-expressing PC12 cells were grown on 15 cm plates, washed with calcium- and magnesium-free PBS, collected in 0.32 M sucrose/10 mM HEPES-KOH, pH 7.4 (SH buffer) containing protease inhibitors (2 μg/ml leupeptin, 1 μg/ml pepstatin, 1 μg/ml E64, 0.2 mM diisopropylfluorphosphate, 2 μg/ml aprotinin, and 1.25 mM MgEGTA), homogenized using a ball bearing device and the homogenate sedimented at 1000 g for 5 min to remove nuclei and debris. The supernatant was then sedimented at 27,000 g for 35 min to remove heavier membranes. The remaining light membranes including small synaptic-like microvesicles were then sedimented at 210,000 g for 1 hour. The pellet was resuspended in SH buffer with protease inhibitors at ˜10 mg protein/ml.
To initiate the transport reaction, 20 μl membranes (˜200 μg protein) were added to 180 μl SH buffer containing 4 mM KCl, 4 mM MgSO4, […], and 100 μM ^3H-L-glutamate, with other additions noted in the text and figure legends. The reaction mixture was incubated at 29° C. for varying intervals, uptake was terminated by rapid filtration through Supor-200 membranes (Gelman) and the filters were washed rapidly four times with 1.5 ml cold 0.155 M potassium tartrate/10 mm HEPES-KOH, pH 7.4 before measuring the bound radioactivity by scintillation counting in 3 ml Cytoscint (ICN). Uptake specifically mediated by DNPI/VGLUT2 was determined by subtracting the background uptake of untransfected cell membranes from the uptake by transfected cell membranes. To examine the chloride dependence of transport, varying proportions of 0.14 M K gluconate and 0.14 M KCl were mixed in the standard reaction buffer (without sucrose) to vary the chloride concentration and maintain constant osmolarity. The ionophores nigericin and valinomycin used in FIG. 13E were prepared as 200× stock solutions in ethanol. The final ethanol concentration in the reaction mixture was 1%.

Experiment [1] concerns untransfected PC12 cell membranes. Description: acridine orange fluorescence quenching of untransfected cell membranes. The note with it: 10 mM glutamate. Type of experiment: biochemical, rat. The method, then:
Native synaptic vesicles acidify during glutamate uptake (Maycox et al. (1988) J. Biol. Chem., 263: 15423). Glutamate presumably serves as a counterion for protons and dissipates ΔΨ, enabling the vacuolar H+-ATPase to generate a larger ΔpH, but cotransport of H+ with glutamate remains an alternative possibility. To determine whether acidification also accompanies glutamate transport by BNPI, we used the quenching of acridine orange fluorescence to measure vesicle pH. Membranes (200 μg of protein) were diluted into 2 ml of 0.3 M sucrose and 10 mM tris-Mops (pH 7.4) containing 4 mM MgSO4 and 5 μM acridine orange and incubated at 37° C. with continuous stirring. Fluorescence was monitored with a Hitachi F4500 spectrofluorimeter at an excitation wavelength of 492 nm and emission of 530 nm. Separate measurements were made with at least three different membrane preparations for wild-type and transfected cells; representative tracings are shown in FIG. 5.

The next experiment relates to synaptic vesicles. The note with it: read-out: Km of vesicular glutamate transport; cited from earlier work.
In experiment [2] the test system is untransfected PC12 cell membranes. Description: background 3H-glutamate uptake by membranes from untransfected PC12 cells. Type of experiment: biochemical, rat. The note with it: uptake at 5 min. The method, then: To initiate the transport reaction, we added 10 μl of membranes to 190 μl of SH buffer containing 4 mM KCl, 4 mM MgSO4, 4 mM ATP, and 50 μM 3H-glutamate, with other additions noted in the text and figure legends. […] Background uptake was determined using membranes prepared from untransfected cells that were incubated for the same amount of time at the same temperature. Transport measurements were performed in duplicate with at least two different preparations of membranes. The Km was calculated by averaging the results of two separate determinations.

On to `N[C@@H](CCC(=O)O)C(=O)O` [L-Glutamate], for which the “inhibition of DNPI-mediated 3H-L-glutamate uptake” value on DNPI/VGLUT2 (10 mM, uptake at 5 minutes) is reported as “markedly inhibits”. Besides, the Km – broadly, the concentration of substrate that gives half-maximal velocity – at DNPI/VGLUT2 (initial rate at 1 minute, 0.03-10 mM L-glutamate, Lineweaver-Burke) is 4.7 mM and ~5 mM; with synaptic vesicles, around 1 mM. Besides, the “effect on acidification produced by chloride in nontransfected cell membranes” value in experiment [1] is “had no effect”. In experiment [2], the “effect on background glutamate uptake by untransfected cell membranes” value was “had little effect”.

`Cl` [chloride]: the “specific 3H-L-glutamate uptake by DNPI at high chloride” value on DNPI/VGLUT2 (140 mM chloride) is listed as “little or no specific uptake is detectable”. The “chloride concentration for maximal 3H-L-glutamate uptake by DNPI” value on DNPI/VGLUT2 (uptake at 5 minutes) is 2 to 10 mM and ~2 mM.
